Laboratory results: the CheMixHub ionic liquid set

Assay: xn = mol fraction of the nth substance listed

C[N+](C)(C)CCC[N+]1(C)CCCCC1.N#C[N-]C#N.N#C[N-]C#N + CCO
viscosity [mPa·s], 100 kPa
Details	x1 = 0.0999	x1 = 0.2001	x1 = 0.3002	x1 = 0.3999	x1 = 0.5002	x1 = 0.6001	x1 = 0.7003	x1 = 0.7998	x1 = 0.8995	x1 = 1
293.15 K	6.82	19.7	47.6	115	280	596	1088	1716	2737	4503
303.15 K	5.39	15	33	73.3	164	330	545	830	1240	1837
313.15 K	4.38	11.6	24.1	49.6	106	211	310	461	624	860
323.15 K	3.68	9.19	18.1	35.2	70.5	132	192	267	360	460
333.15 K	3.18	7.55	14.1	26.2	50.7	85.9	126	171	219	270

CCCCCCCCn1cc[n+](C)c1.N#C[S-] + CN(C)C=O
viscosity [mPa·s], 101 kPa
Details	293.15 K	303.15 K	313.15 K	323.15 K	333.15 K	343.15 K	353.15 K	363.15 K
x1 = 0.004576	0.987	0.872	0.784	0.707	0.65	0.595	0.544	0.504
x1 = 0.007767	1.007	0.891	0.799	0.722	0.658	0.604	0.558	0.515
x1 = 0.01461	1.065	0.948	0.868	0.779	0.705	0.642	0.591	0.543
x1 = 0.02142	1.136	0.994	0.912	0.814	0.728	0.673	0.617	0.563
x1 = 0.02908	1.219	1.057	0.956	0.848	0.764	0.713	0.648	0.598
x1 = 0.03577	1.297	1.134	1.013	0.897	0.808	0.738	0.672	0.618

CCCCCCCCn1cc[n+](C)c1.[Cl-] + CN1CCCC1=O
100 kPa
Details	viscosity [mPa·s]
293.15 K, x2 = 0.3221	787
298.15 K, x2 = 0.3221	541
308.15 K, x2 = 0.7195	14.86
308.15 K, x2 = 0.9085	3.35
318.15 K, x2 = 0.21	324
318.15 K, x2 = 0.5321	43.3
318.15 K, x2 = 0.8143	5.54
323.15 K, x2 = 0.21	244
323.15 K, x2 = 0.8143	4.96
328.15 K, x2 = 0.21	185

CCn1cc[n+](C)c1.N[C@@H](CO)C(=O)[O-] + O
100 kPa
Details	electrical conductivity [S/m]
303.15 K, x1 = 0.9276	0.0944
308.15 K, x1 = 0.9133	0.132
313.15 K, x1 = 0.9133	0.169
313.15 K, x1 = 0.9276	0.166
318.15 K, x1 = 0.8699	0.223
318.15 K, x1 = 0.884	0.221
323.15 K, x1 = 0.9133	0.269
328.15 K, x1 = 0.884	0.346
333.15 K, x1 = 0.8699	0.436
333.15 K, x1 = 0.884	0.432
338.15 K, x1 = 0.9276	0.511

COC(=O)OC + CCCCCCCC[N+](C)(CCCCCCCC)CCCCCCCC.[Cl-]
101 kPa, x1 = 1
Details	electrical conductivity [S/m]	viscosity [mPa·s]
298.15 K	5.2e-05	0.58
303.15 K	5.5e-05	–
308.15 K	4.9e-05	–
313.15 K	5.5e-05	0.45
318.15 K	5.2e-05	0.4
